Assay results taken from patent US5834462A, “Tricyclic heterocyclic sulfonamide and sulfonic ester derivatives” (Eisai Co., Ltd., priority 1993, dated 1998).
In brackets after ≈: the same amount, converted by molar mass.

How the values were obtained:
[1] = tested on: KB cells (human nasopharyngeal cancer cells); assay: in vitro Antitumor test on KB cells (MTT); type: cell-based; details: 72 h, 3 days incubation
Description: in vitro Antitumor test on KB cells (human nasopharyngeal cancer cells)
KB cells suspended in an RPMI1640 medium (mfd. by Nissui Seiyaku K. K.), which contained 10% of fetal calf serum, 100 U/mi of penicillin, 100 μg/ml of streptomycin, 5×10^-5 M of mercaptoethanol and 1 mM of sodium pyruvate, were inoculated in 1.25×10^3 portions (0.1 ml) into wells of a 96-well flat-bottomed microplate and then incubated in an incubator containing 5% of carbon dioxide at 37° C. for a day.
A compound of the present invention was dissolved in dimethyl sulfoxide in a concentration of 20 mg/ml and diluted with a 10% fetal calf serum-RPMI1640 culture medium to a concentration of 100 μg/ml. By using this concentration as the highest level, threefold serial dilution was performed with a 10% fetal calf serum-RPMI1640 culture medium. Then it was added in 0.1 ml portions into the wells of the above-mentioned plate wherein the KB cells had been incubated followed by incubation in the incubator containing 5% of carbon dioxide at 37° C. for 3 days.
After incubating, an MTT (3-(4,5-dimethylthiazol-2-yl)-2,5-diphenyltetrazolium bromide) solution (3.3 mg/ml) was added in 0.05 ml portions into the wells and the incubation was effected for additional 1 hour. After sucking off the supernatant from each well, the formazane thus formed was dissolved in 0.1 ml of dimethyl sulfoxide. Then the absorbance at 540 nm was measured with a microplate reader and employed as an indication of the vital cell count. In accordance with the following equation, the inhibitory ratio was calculated and the 50% inhibitory concentration (IC50) of the test compound was determined. [formula] T: absorbance of a well containing the test commpound. C: absorbance of a well containing no test compound.

[2] = tested on: M5076 (mouse reticulum cell sarcoma); assay: in vivo antitumor test on M5076 transplanted in BDF1 mice; details: 25 mg/kg/day, intraperitoneal, 4 times every other day from 10th day
From the text: in vivo antitumor test on M5076 (mouse reticulum cell sarcoma)
1×10^6 M5076 cells were subcutaneously transplanted into the lateral parts of BDF1 mice (aged 6 to 9 weeks, female). A compound of the present invention was suspended in physiological saline containing 3.5% of dimethyl sulfoxide and 6.5% of Tween 80 and a given amount of the obtained suspension was intraperitoneally administered to the animals 4 times from the 10th day after the transplantation once a day every other day. The control group comprised 10 to 12 animals, while the test group comprised 5 or 6 animals.
On the 21st day after the transplantation, tumors were taken out and weighed. Then the tumor multiplication inhibitory ratio of each test group based on the control group was determined in accordance with the following equation. [formula] T: average tumor weight of the test group. C: average tumor weight of the control group.

## COc1ccc(S(=O)(=O)Nc2cccc3c2Nc2ccc(F)cc2CN3)cc1 [Example 32, N-(10,11-Dihydro-2-fluoro-5dibenzo(b,e) (1,4)-diazepin-6-yl)-4-methoxybenzenesulfonamide]
[1]
  IC50: 0.082 µg/mL (≈ 0.205 µM)
[2]
  Inhibitory ratio (tumor weight, 21st day): 84%
  Survival ratio on 21st day: 100%
